# Data reported in patent publication US20230219969A1 (priority 2020, published 2023).
# Experiments:
# [1] = target: T1, 5-HT2C edited (accession number AAF35842.1) (Homo sapiens, UniProt P28335, I156V/I160V/N158S); experiment: biochemical; format: binding
# Target sequence in this assay (P28335 whole entry I156V/N158S/I160V, looked up): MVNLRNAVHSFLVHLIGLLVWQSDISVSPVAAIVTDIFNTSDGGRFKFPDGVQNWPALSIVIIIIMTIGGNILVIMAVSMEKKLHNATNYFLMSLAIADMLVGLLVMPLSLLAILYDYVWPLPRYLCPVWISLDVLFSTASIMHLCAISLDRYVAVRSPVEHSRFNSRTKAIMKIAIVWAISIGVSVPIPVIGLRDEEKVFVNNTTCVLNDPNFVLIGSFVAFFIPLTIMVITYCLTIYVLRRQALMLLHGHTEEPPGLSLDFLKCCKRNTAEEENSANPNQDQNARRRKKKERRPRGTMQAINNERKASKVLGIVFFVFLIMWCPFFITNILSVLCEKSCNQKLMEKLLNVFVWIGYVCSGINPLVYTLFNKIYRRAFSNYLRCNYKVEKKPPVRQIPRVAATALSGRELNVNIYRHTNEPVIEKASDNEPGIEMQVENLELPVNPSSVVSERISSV
# [2] = target: T1, 5-HT2C edited (accession number AAF35842.1); experiment: cell-based
# Target sequence in this assay (P28335 33-458 I156V/N158S/I160V limits assumed): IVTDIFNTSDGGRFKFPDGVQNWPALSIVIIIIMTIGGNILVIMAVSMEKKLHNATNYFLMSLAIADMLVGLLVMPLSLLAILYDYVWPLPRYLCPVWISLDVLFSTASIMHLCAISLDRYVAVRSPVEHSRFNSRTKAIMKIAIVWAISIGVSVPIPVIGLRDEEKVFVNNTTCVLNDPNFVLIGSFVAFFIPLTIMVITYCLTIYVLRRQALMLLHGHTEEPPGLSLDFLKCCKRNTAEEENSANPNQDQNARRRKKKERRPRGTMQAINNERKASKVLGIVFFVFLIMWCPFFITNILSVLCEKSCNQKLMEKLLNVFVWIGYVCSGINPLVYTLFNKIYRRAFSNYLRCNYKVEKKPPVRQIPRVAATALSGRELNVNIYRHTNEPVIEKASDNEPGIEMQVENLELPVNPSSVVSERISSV
Compound,IC50 [1] [µM],EC50 [2] [µM]
"COc1ccc2c(c1)CCN2CCN(C)C [Example 8, 2-(5-methoxyindolin-1-yl)-N,N-dimethylethan-1-amine]",1 to 10,> 10
"COc1ncc2c(ccn2CC(C)(C)N(C)C)n1 [Example 23, 1-(2-methoxy-5H-pyrrolo[3,2-d]pyrimidin-5-yl)-N,N,2-trimethylpropan-2-amine]",> 10,> 10
"COc1cc(F)c2c(ccn2CC(C)(C)N(C)C)c1 [Example 17, 1-(7-fluoro-5-methoxy-1H-indol-1-yl)-N,N,2-trimethylpropan-2-amine]",> 10,> 10
"Cc1cn(CC(C)(C)N)c2ccc(F)cc12 [Example 40, 1-(5-fluoro-3-methyl-1H-indol-1-yl)-2-methylpropan-2-amine]",0.101 to 1,0.101 to 1
"C[C@H](C(=O)n1ccc2ccccc21)N(C)C [Example 46, (R)-2-(dimethylamino)-1-(1H-indol-1-yl)propan-1-one]",1 to 10,> 10
"COc1ccc2c(ccn2C(=O)[C@@H](C)N(C)C)c1 [Example 47, (R)-2-(dimethylamino)-1-(5-methoxy-1H-indol-1-yl)propan-1-one]",> 10,> 10
"COc1ccc2c(ccn2C[C@@H](C)N)n1 [Example 28, (R)-1-(5-methoxy-1H-pyrrolo[3,2-b]pyridin-1-yl)propan-2-amine]",> 10,1 to 10
"COc1cc2ccn(CC(C)(C)N(C)C)c2cn1 [Example 22, 1-(5-methoxy-1H-pyrrolo[2,3-c]pyridin-1-yl)-N,N,2-trimethylpropan-2-amine]",> 10,> 10
"CN(C)C(C)(C)Cn1ccc2cc(F)ccc21 [Example 14, 1-(5-fluoro-1H-indol-1-yl)-N,N,2-trimethylpropan-2-amine]",> 10,> 10
"COc1cnc2c(ccn2C[C@@H](C)N)c1 [Example 34, (R)-1-(5-methoxy-1H-pyrrolo[2,3-b]pyridin-1-yl)propan-2-amine]",1 to 10,1 to 10
"COc1ccc2c(c1)CCCN2CCN(C)C [Example 9, 2-(6-methoxy-3,4-dihydroquinolin-1(2H)-yl)-N,N-dimethylethan-1-amine]",0.101 to 1,> 10
"CN(C)C(C)(C)Cn1ccc2cccc(F)c21 [Example 20, 1-(7-fluoro-1H-indol-1-yl)-N,N,2-trimethylpropan-2-amine]",> 10,> 10
"COc1ccc2c(ccn2CC(C)(C)N(C)C)c1 [Example 1, 1-(5-methoxy-1H-indol-1-yl)-N,N,2-trimethylpropan-2-amine]",1 to 10,> 10
"C[C@H](Cn1ccc2cncnc21)N(C)C [Example 27, (R)—N,N-dimethyl-1-(7H-pyrrolo[2,3-d]pyrimidin-7-yl)propan-2-amine]",> 10,> 10
"CN[C@H](C)Cn1ccc2cnccc21 [Example 38, (R)—N-methyl-1-(1H-pyrrolo[3,2-c]pyridin-1-yl)propan-2-amine]",> 10,> 10
"CN(C)CC(=O)n1ccc2ccccc21 [Example 44, 2-(dimethylamino)-1-(1H-indol-1-yl)ethan-1-one]",> 10,> 10
"COc1cc2ccn(C[C@@H](C)N(C)C)c2cn1 [Example 33, (R)-1-(5-methoxy-1H-pyrrolo[2,3-c]pyridin-1-yl)-N,N-dimethylpropan-2-amine]",> 10,> 10
"COc1cc2ccn(CCN(C)C)c2cn1 [Example 4, 2-(5-methoxy-1H-pyrrolo[2,3-c]pyridin-1-yl)-N,N-dimethylethan-1-amine]",0.101 to 1,> 10
"CC(C)(N)Cn1ccc2c(F)c(F)ccc21 [Example 41, 1-(4,5-difluoro-1H-indol-1-yl)-2-methylpropan-2-amine]",0.101 to 1,0.101 to 1
"COc1ccc2c(ccn2CC2(N(C)C)CC2)c1 [Example 2, 1-((5-methoxy-1H-indol-1-yl)methyl)-N,N-dimethylcyclopropan-1-amine]",1 to 10,> 10
"COc1ccc2c(ccn2C[C@@H](C)N(C)C)n1 [Example 30, (R)-1-(5-methoxy-1H-pyrrolo[3,2-b]pyridin-1-yl)-N,N-dimethylpropan-2-amine]",> 10,> 10
"CN[C@H](C)Cn1ccc2nc(OC)ccc21 [Example 29, (R)-1-(5-methoxy-1H-pyrrolo[3,2-b]pyridin-1-yl)-N-methylpropan-2-amine]",> 10,> 10
"CN[C@H](C)Cn1ccc2cc(OC)ncc21 [Example 32, (R)-1-(5-methoxy-1H-pyrrolo[2,3-c]pyridin-1-yl)-N-methylpropan-2-amine]",1 to 10,1 to 10
"CN(C)C(C)(C)Cn1ccc2c(F)c(F)ccc21 [Example 12, 1-(4,5-difluoro-1H-indol-1-yl)-N,N,2-trimethylpropan-2-amine]",> 10,> 10

Compound,IC50 [1] [µM],EC50 [2] [µM]
"CN(C)C(C)(C)Cn1ccc2c(F)cccc21 [Example 18, 1-(4-fluoro-1H-indol-1-yl)-N,N,2-trimethylpropan-2-amine]",> 10,> 10
"C[C@@H](N)Cn1ccc2cncnc21 [Example 26, (R)-1-(7H-pyrrolo[2,3-d]pyrimidin-7-yl)propan-2-amine]",1 to 10,1 to 10
"CN(C)C(C)(C)Cn1ccc2ccc(F)cc21 [Example 19, 1-(6-fluoro-1H-indol-1-yl)-N,N,2-trimethylpropan-2-amine]",> 10,> 10
"CN(C)CCn1ccc2cnccc21 [Example 7, N,N-dimethyl-2-(1H-pyrrolo[3,2-c]pyridin-1-yl)ethan-1-amine]",> 10,> 10
"Cc1cn(CC(C)(C)N(C)C)c2ccc(F)cc12 [Example 13, 1-(5-fluoro-3-methyl-1H-indol-1-yl)-N,N,2-trimethylpropan-2-amine]",1 to 10,1 to 10
"COc1ccc2c(ccn2CC(C)(C)N(C)C)n1 [Example 21, 1-(5-methoxy-1H-pyrrolo[3,2-b]pyridin-1-yl)-N,N,2-trimethylpropan-2-amine]",> 10,> 10
"COc1ccc2c(ccn2C(=O)CN(C)C)c1 [Example 45, 2-(dimethylamino)-1-(5-methoxy-1H-indol-1-yl)ethan-1-one]",> 10,> 10
"CN[C@H](C)Cn1ccc2cc(OC)cnc21 [Example 35, (R)-1-(5-methoxy-1H-pyrrolo[2,3-b]pyridin-1-yl)-N-methylpropan-2-amine]",> 10,1 to 10
"COc1ccc2c(c1)CN(CCN(C)C)C2 [Example 10, 2-(5-methoxyisoindolin-2-yl)-N,N-dimethylethan-1-amine]",1 to 10,1 to 10
"COc1ccc2c(ccn2CC(C)(C)N)c1 [Example 42, 1-(5-methoxy-1H-indol-1-yl)-2-methylpropan-2-amine]",1 to 10,1 to 10
"C[C@H](Cn1ccc2cnccc21)N(C)C [Example 39, (R)—N,N-dimethyl-1-(1H-pyrrolo[3,2-c]pyridin-1-yl)propan-2-amine]",> 10,> 10
"COc1ccc2c(ccn2[C@H]2C[C@H](N(C)C)C2)c1 [Example 25, (1r,3r)-3-(5-methoxy-1H-indol-1-yl)-N,N-dimethylcyclobutan-1-amine]",1 to 10,> 10
"C[C@H](C(=O)n1ccc2cc(F)ccc21)N(C)C [Example 48, (R)-2-(dimethylamino)-1-(5-fluoro-1H-indol-1-yl)propan-1-one]",1 to 10,> 10
"COc1cnc2c(ccn2C[C@@H](C)N(C)C)c1 [Example 36, (R)-1-(5-methoxy-1H-pyrrolo[2,3-b]pyridin-1-yl)-N,N-dimethylpropan-2-amine]",1 to 10,1 to 10
"COc1ccc2c(c1)CCN(CCN(C)C)C2 [Example 11, 2-(6-methoxy-3,4-dihydroisoguinolin-2(1H)-yl)-N,N-dimethylethan-1-amine]",0.101 to 1,> 10
"COc1ccc2c(ccn2CCN(C)C)n1 [Example 3, 2-(5-methoxy-1H-pyrrolo[3,2-b]pyridin-1-yl)-N,N-dimethylethan-1-amine]",0.101 to 1,> 10
"COc1ccc2c(ccn2[C@H]2C[C@@H](N(C)C)C2)c1 [Example 24, (1s,3s)-3-(5-methoxy-1H-indol-1-yl)-N,N-dimethylcyclobutan-1-amine]",1 to 10,> 10
"COc1cc2ccn(C[C@@H](C)N)c2cn1 [Example 31, (R)-1-(5-methoxy-1H-pyrrolo[2,3-c]pyridin-1-yl)propan-2-amine]",0.101 to 1,0.101 to 1
"COc1ccc2c(ccn2CC(C)(C)N(C)C)c1F [Example 15, 1-(4-fluoro-5-methoxy-1H-indol-1-yl)-N,N,2-trimethylpropan-2-amine]",> 10,> 10
"CN(C)CCn1ccc2cncnc21 [Example 6, N,N-dimethyl-2-(7H-pyrrolo[2,3-d]pyrimidin-7-yl)ethan-1-amine]",1 to 10,> 10
"CN(C)CC(=O)n1ccc2cc(F)ccc21 [Example 43, 2-(dimethylamino)-1-(5-fluoro-1H-indol-1-yl)ethan-1-one]",> 10,> 10
"C[C@@H](N)Cn1ccc2cnccc21 [Example 37, (R)-1-(1H-pyrrolo[3,2-c]pyridin-1-yl)propan-2-amine]",> 10,1 to 10
"COc1cnc2c(ccn2CCN(C)C)c1 [Example 5, 2-(5-methoxy-1H-pyrrolo[2,3-b]pyridin-1-yl)-N,N-dimethylethan-1-amine]",0.101 to 1,> 10
"COc1cc2ccn(CC(C)(C)N(C)C)c2cc1F [Example 16, 1-(6-fluoro-5-methoxy-1H-indol-1-yl)-N,N,2-trimethylpropan-2-amine]",> 10,> 10
